The target of this assay is human IDO1 (Homo sapiens, UniProt P14902). The assay can be described thus: Assessment of human IDO-1 inhibitory activity in Hela cells (Interferon-gamma stimulated HeLa cells, Ehrlich reagent, absorbance 490 nm). The class given is cell-based. Further details: endogenous in cells; host or cells: HeLa cells stimulated with interferon-gamma. Particulars: Hela Human IDO-1 cellular assay. The essentials: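 IDO activity induced by 18 h IFN-γ (human 10 ng/ml or murine 5 ng/ml, final) after 1 h compound pre-treatment of HeLa cells at 37 °C. Supernatant kynurenine detected via Ehrlich reagent absorbance at 490 nm following 3% TCA at 50 °C; IC50 set against no-IFN-γ and untreated-stimulated controls.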
human IDO1, sequence (P14902 whole entry): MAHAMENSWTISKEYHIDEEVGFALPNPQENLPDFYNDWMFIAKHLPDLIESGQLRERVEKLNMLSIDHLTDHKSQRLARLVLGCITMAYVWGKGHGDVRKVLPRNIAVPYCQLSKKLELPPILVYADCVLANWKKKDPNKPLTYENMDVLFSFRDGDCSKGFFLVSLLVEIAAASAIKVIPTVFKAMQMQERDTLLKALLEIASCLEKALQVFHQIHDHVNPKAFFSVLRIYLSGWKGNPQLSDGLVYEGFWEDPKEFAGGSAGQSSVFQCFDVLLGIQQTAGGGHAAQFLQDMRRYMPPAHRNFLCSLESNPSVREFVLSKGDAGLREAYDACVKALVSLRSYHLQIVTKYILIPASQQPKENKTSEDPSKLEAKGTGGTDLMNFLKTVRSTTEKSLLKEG
One may read the IC50 as the point on the concentration scale where inhibition reaches its midpoint. Low readings indicate higher potency, high ones lower potency. Regarding `COCCN(c1ccc(C(C)(C)CC(=O)O)cc1NC(=O)Nc1ccc(C#N)cc1)C1CCOCC1` [Example 19, 3-(3-(3-(4-cyanophenyl)ureido)-4-((2-methoxyethyl)(tetrahydro-2H-pyran-4-yl)amino)phenyl)-3-methylbutanoic acid], the IC50 was above 50 nM.

Take `CCc1ccc(Nc2cc(C(CC)CC(=O)O)ccc2N2CCOC[C@H]2C(C)C)cc1` (single isomer, unassigned) [Example 890]: the IC50 is below 50 nM.

For `CC[C@@H](CC(=O)O)c1ccc(N(CC2CC2)CC(C)(C)O)c(Nc2ccc(C#N)cc2)c1` (single isomer, unassigned) [Example 268], the 50% inhibitory concentration (IC50) was below 5 nM.

For the molecule `CCOc1ncc(Nc2cc([C@H](CC)CC#N)ccc2N(CC)C2CCOCC2)cn1` [Example 1333, (R)-3-(3-((2-Ethoxypyrimidin-5-yl)amino)-4-(ethyl(tetrahydro-2H-pyran-4-yl)amino)phenyl)pentanenitrile], the IC50 is above 50 nM.

For the molecule `CCC(CC(=O)O)c1ccc(N2CCOCC2)c(Nc2ccc(C#N)cc2)c1` (single isomer, unassigned) [Example 6 Enantiomer 2, 3-(3-((4-Cyanophenyl)amino)-4-morpholinophenyl)pentanoic acid], the IC50 was below 50 nM.

On to `COCC(CC(=O)O)c1ccc(N2C[C@@H](C)O[C@@H](C)C2)c(Nc2ccc(C#N)cc2)c1` (single isomer, unassigned) [602 E1], for which the IC50 is above 50 nM.

As for `CCN(c1ccc(C(C)CC(=O)O)cc1Nc1ccc2nc(C)sc2c1)C1CCOCC1` (single isomer, unassigned) [Example 629, 3-(4-(ethyl(tetrahydro-2H-pyran-4-yl)amino)-3-((2-methylbenzo[d]thiazol-6-yl)amino)phenyl)butanoic acid], the IC50 is below 50 nM.

On to `CCOc1ncc(Nc2cc(C(CC)CC(=O)O)cnc2N(CC(C)C)CC(C)C)cn1` (racemic) [Example 1376, (+/−)-3-(6-(Diisobutylamino)-5-((2-ethoxypyrimidin-5-yl)amino)pyridin-3-yl)pentanoic acid], for which the IC50 is below 5 nM.

Take `CCN(c1ccc(C(CC(=O)O)C2CC2)cc1Nc1ccc(C#N)cc1)C1CCOCC1` (single isomer, unassigned) [Example 34, 3-(3-((4-cyanophenyl)amino)-4-(ethyl(tetrahydro-2H-pyran-4-yl)amino)phenyl)-3-cyclopropylpropanoic acid]: the 50% inhibitory concentration (IC50) is below 5 nM.

`CCCN(c1ccc(C(C)(C)CC(=O)O)cc1Nc1cnc(OC)nc1)C1CCOCC1` [Example 23, 3-(3-((2-methoxypyrimidin-5-yl)amino)-4-(propyl(tetrahydro-2H-pyran-4-yl)amino)phenyl)-3-methylbutanoic acid] registered an IC50 below 50 nM.

Take `CCN(c1ccc(C(C)(C)CC(=O)O)cc1Nc1ccc(C#N)cc1)C1CCS(=O)(=O)CC1` [Example 178, 3-(3-((4-cyanophenyl)amino)-4-((1,1-dioxidotetrahydro-2H-thiopyran-4-yl)(ethyl)amino)phenyl)-3-melhylbutanoic acid]: the IC50 was below 50 nM.

In turn, `CCN(c1cc(F)c([C@@H](COC)CC(=O)O)cc1NC(=O)Nc1ccc(C#N)cc1)C1CCOCC1` (single isomer, unassigned) [Example 849, 3-(5-(3-(4-Cyanophenyl)ureido)-4-(ethyl(tetrahydro-2H-pyran-4-yl)amino)-2-fluorophenyl)-4-methoxybutanoic acid] showed a 50% inhibitory concentration (IC50) above 50 nM.

Molecule `COCCN(c1ccc(C(COC)CC(=O)O)cc1Nc1ccc(Cl)cc1)C1CCOCC1` (single isomer, unassigned) [Example 256 Enantiomer 1, 3-(3-((4-Chlorophenyl)amino)-4-((2-methoxyethyl)(tetrahydro-2H-pyran-4-yl)amino)phenyl)-4-methoxybutanoic acid] registered a concentration for half-maximal inhibition (IC50) below 5 nM.

Take `CCC(CC(=O)O)c1ccc(N(CC)C2CCN(Cc3ccccc3)CC2)c(Nc2ccc(C#N)cc2)c1` (single isomer, unassigned) [Example 940, 3-(4-((1-benzyl-piperidin-4-yl)(ethyl)amino)-3-((4-cyano-phenyl)amino)phenyl) pentanoic acid]: the IC50 was below 5 nM.

`CCN(c1ccc([C@@H](COC)CC(=O)O)cc1Nc1ccc(F)cn1)C1CCOCC1` (single isomer, unassigned) [Example 363] yielded an IC50 below 50 nM.

In turn, `CCN(c1cc(F)c(C(COC)CC(=O)O)cc1Nc1ccc(C#N)cc1F)C1CCOCC1` (single isomer, unassigned) [Example 847, 3-(5-((4-cyano-2-fluorophenyl)amino)-4-(ethyl (tetrahydro-2H-pyran-4-yl)amino)-2-fluorophenyl)-4-methoxybutanoic acid] came in with a 50% inhibitory concentration (IC50) below 5 nM.

Consider `CCOc1ncc(Nc2cc(C(COC)CC(=O)O)ccc2N2CCOC[C@H]2C(C)C)cn1` (single isomer, unassigned) [Example 914], for which the IC50 was above 50 nM.

Molecule `CCN(c1ccc([C@@H](COC)CC(=O)O)cc1Nc1ccc(C#N)c(Cl)c1)C1CCOCC1` (single isomer, unassigned) [Example 381] had an IC50 below 50 nM.

`CCC1COCCN1c1ccc([C@@H](COC)CC(=O)O)cc1Nc1ccc(C#N)cc1` (single isomer, unassigned) [Example 1281] gave a 50% inhibitory concentration (IC50) above 50 nM.

The molecule “3-(4-((1,1-dioxidotetrahydro-2H- thiopyran-4-yl)(ethyl)amino)-3- ((4-fluorophenyl)amino)phenyl)- 4-isopropoxybutanoic acid [Example 340]” displayed a half-maximal inhibitory concentration (IC50) below 50 nM.

`CCCN(c1ccc(C(CC)CC(=O)O)cc1NC(=O)Nc1ccc(C)cc1)C1CCOCC1` (single isomer, unassigned) [Example 557 Enantiomer 1, 3-(4-(Propyl(tetrahydro-2H-pyran-4-yl)amino)-3-(3-(p-tolyl)ureido)phenyl)pentanoic acid] gave a half-maximal inhibitory concentration (IC50) below 50 nM.

The molecule `CCN(c1ccc(C(COC)CC(=O)O)cc1Nc1ccc(Cl)cc1)C1CCS(=O)(=O)CC1` (single isomer, unassigned) [Example 174, 3-(3-((4-chlorophenyl)amino)-4-((1,1-dioxidotetrahydro-2H-thiopyran-4-yl)(ethyl)amino)phenyl)-4-methoxybutanoic acid] returned an IC50 below 50 nM.

The molecule `CCN(c1cc(F)c(C(COC)CC(=O)O)cc1NC(=O)Nc1ccc(Cl)cc1F)C1CCOCC1` (single isomer, unassigned) [Example 855, 3-(5-(3-(4-Chloro-2-fluorophenyl)ureido)-4-(ethyl(tetrahydro-2H-pyran-4-yl)amino)-2-fluorophenyl)-4-methoxybutanoic acid] returned an IC50 below 50 nM.

As to `CCC(CC(=O)O)c1cc(Nc2cnc(OC)nc2)c(N(CC)C2CCOCC2)cc1F` (single isomer, unassigned) [Example 859, 3-(4-(ethyl (tetrahydro-2H-pyran-4-yl)amino)-2-fluoro-5-((2-methoxy-pyrimidin-5-yl)amino)phenyl) pentanoic acid], the half-maximal inhibitory concentration (IC50) was below 5 nM.

In turn, `COCC(CC(=O)O)c1ccc(N2CCC(c3ccccc3)CC2)c(NC(=O)Nc2ccc(Cl)cc2F)c1` (single isomer, unassigned) [Example 1357 E2, 3-(3-(3-(4-Chloro-2-fluorophenyl)ureido)-4-(4-phenylpiperidin-1-yl)phenyl)-4-methoxybutanoic acid] yielded a 50% inhibitory concentration (IC50) below 50 nM.

Regarding `CC[C@@H](CC(=O)O)c1ccc(N(CC)C2CCOCC2)c(Nc2ccc(OC)cn2)c1` (single isomer, unassigned) [Example 462], the IC50 was below 5 nM.

For `CCC(CC(=O)O)c1cc(Nc2cnc(OCC3CC3)nc2)c(N(CC)C2CCOCC2)cc1F` (single isomer, unassigned) [Example 858, 3-(5-((2-(cyclopropyl-methoxy)pyrimidin-5-yl)amino)-4-(ethyl(tetra-hydro-2H-pyran-4-yl)amino)-2-fluorophenyl) pentanoic acid], the IC50 is below 5 nM.

For the molecule `CCN(c1ccc([C@@H](COC)CC(=O)O)cc1Nc1cc(C)c(C#N)cn1)C1CCOCC1` (single isomer, unassigned) [Example 384], the concentration for half-maximal inhibition (IC50) is above 50 nM.

In turn, `CCOc1ncc(Nc2cc(C(CC)CC(=O)O)ccc2N(CCOC)C2CCOCC2)cn1` (single isomer, unassigned) [Example 1260, 3-(3-((2-ethoxypyrimidin-5-yl)amino)-4-((2-methoxyethyl)(tetrahydro-2H-pyran-4-yl)amino)phenyl)pentanoic acid] displayed a half-maximal inhibitory concentration (IC50) below 50 nM.

As for `COCC(CC(=O)O)c1ccc(N2CCOC(C)(C)C2)c(Nc2ccc(C#N)cc2)c1` (single isomer, unassigned) [Example 1316, 3-(3-((4-cyanophenyl)amino)-4-(2,2-dimethylmorpholino)phenyl)-4-methoxybutanoic acid], the 50% inhibitory concentration (IC50) is above 50 nM.

Molecule `CCOc1ncc(Nc2cc(C(CC)CC(=O)O)ccc2N2CCOCC2)cn1` (single isomer, unassigned) [Example 7 Enantiomer 2, 3-(3-((2-Ethoxypyrimidin-5-yl)amino)-4-morpholinophenyl)pentanoic acid] had an IC50 above 50 nM.

`CCC(CC(=O)O)c1ccc(N2CCOC(C)(C)C2)c(NC(=O)Nc2ccc(Cl)cc2F)c1` (single isomer, unassigned) [Example 1322 E1, 3-(3-(3-(4-Chloro-2-fluorophenyl)ureido)-4-(2,2-dimethylmorpholino)phenyl)pentanoic acid]: the 50% inhibitory concentration (IC50) was above 50 nM.

In turn, `CCCN(c1ccc(C(COC)CC(=O)O)cc1Nc1ccc2c(c1)OC(F)(F)O2)C1CCOCC1` (single isomer, unassigned) [Example 571, 3-(3-((2,2-difluorobenzo[d][1,3]dioxol-5-yl)amino)-4-(propyl (tetrahydro-2H-pyran-4-yl)amino)phenyl)-4-methoxybutanoic acid] showed an IC50 below 5 nM.

`CCC(CC(=O)O)c1ccc(N2CCOCC2)c(NC(=O)Nc2ccc(C)cc2)c1` (single isomer, unassigned) [Example 8 Enantiomer 1, 3-(4-Morpholino-3-(3-(p-tolyl)ureido)phenyl)pentanoic acid] registered an IC50 above 50 nM.

The values above are taken from patent US9790169B2, “IDO inhibitors” (BRISTOL-MYERS SQUIBB COMPANY, priority 2015, dated 2017).
